Test results as given in ChEMBL document CHEMBL2169825, “Development of selective, potent RabGGTase inhibitors” (J Med Chem, 2012).

Legend:
[1] = system: A549; experiment: Cytotoxicity against human A549 cells after 24 hrs by Alamar Blue assay; format: functional, cell-based; settings: A549, 24 h
[2] = system: DU-145; experiment: Cytotoxicity against human DU145 cells after 24 hrs by Alamar Blue assay; format: functional, cell-based; settings: DU-145, 24 h
[3] = Inhibition of RabGGTase using NBD-FPP as substrate after 5 mins by fluorometric assay
[4] = Inhibition of FTase using NBD-GPP as substrate after 10 mins by solution based fluorometric assay
[5] = system: PBMC; experiment: Cytotoxicity against human PBMC cells after 24 hrs by Alamar Blue assay; format: cell-based
[6] = Inhibition of rat RabGGTase using [3H]GGPP as substrate after 30 mins by scintillation counter
[7] = Inhibition of GGTase 1 using NBD-FPP as substrate after 10 mins by solution based fluorometric assay
[8] = system: HCT-116; experiment: Cytotoxicity against human HCT116 cells after 24 hrs by Alamar Blue assay; format: functional, cell-based; settings: HCT-116, 24 h
[9] = system: HeLa; experiment: Cytotoxicity against human HeLa cells after 24 hrs by Alamar Blue assay; format: functional, cell-based
[10] = system: A2780; experiment: Cytotoxicity against human A2780 cells after 24 hrs by Alamar Blue assay; format: functional, cell-based; settings: A2780, 24 h
[11] = Inhibition of RabGGTase using [3H]GGPP as substrate after 1 hr by scintillation proximity assay
[12] = Inhibition of RabGGTase in human HeLa cells after 6 hrs by reprenylation assay; format: cell-based

| SMILES | IC50 [1] [nM] | IC50 [2] [nM] | IC50 [3] [nM] | IC50 [4] [nM] | IC50 [5] [nM] | IC50 [6] [nM] | IC50 [7] [nM] | IC50 [8] [nM] | IC50 [9] [nM] | IC50 [10] [nM] | IC50 [11] [nM] | IC50 [12] [nM] |
| --- | --- | --- | --- | --- | --- | --- | --- | --- | --- | --- | --- | --- |
| COc1ccc(S(=O)(=O)N2Cc3cc(C#N)ccc3N(Cc3cncn3C)C[C@H]2Cc2ccccc2)cc1 | 99 | 70 | 724 | 6 | > 10000 | 21 | > 99500 | 63 | 101 | 43 | 6.4 | 74 |
| COc1ccc(S(=O)(=O)N2Cc3cc(-c4ccc(C=O)o4)ccc3N(Cc3cncn3C)C[C@H]2Cc2ccc(OC(=O)NCc3ccccc3)cc2)cc1 |  |  | 616 | > 9700 | > 10000 |  | > 99500 | 443 | 797 | 589 | 1550 | 311 |
| COc1ccc(S(=O)(=O)N2Cc3cc(-c4ccnc(OC)c4)ccc3N(Cc3cncn3C)C[C@H]2Cc2ccc(-c3cccnc3)cc2)cc1 |  |  |  | 79 |  |  | > 99500 |  |  |  | 121 | 300 |
| COc1ccc(S(=O)(=O)N2Cc3cc(-c4ccnc(OC)c4)ccc3N(Cc3cncn3C)C[C@H]2Cc2ccc(Nc3ccccc3)cc2)cc1 |  |  |  | 2430 |  |  | > 99500 |  |  |  | 5720 |  |
| CCCCCCNC(=O)c1ccc2c(c1)CN(S(=O)(=O)c1ccc(OC)cc1)[C@H](Cc1ccc(O)cc1)CN2Cc1cncn1C |  |  |  | 20.7 |  |  | > 99500 |  |  |  | 70.5 | 3890 |
| COc1ccc(S(=O)(=O)N2Cc3cc(N4CCN(C(C)=O)CC4)ccc3N(Cc3cncn3C)C[C@H]2Cc2ccc(O)cc2)cc1 |  |  |  | 112 |  |  | > 99500 |  |  |  | 27 |  |
| COc1ccc(S(=O)(=O)N2Cc3cc(Nc4ccccc4)ccc3N(Cc3cncn3C)C[C@H]2Cc2ccc(O)cc2)cc1 |  |  |  | 454 |  |  | > 99500 |  |  |  | 246 |  |
| COc1ccc(S(=O)(=O)N2Cc3cc(-c4ccc(C=O)o4)ccc3N(Cc3cncn3C)C[C@H]2Cc2ccc(OS(=O)(=O)C(F)(F)F)cc2)cc1 |  |  |  | > 9700 |  |  | > 99500 |  |  |  | 4290 |  |
| COc1ccc(S(=O)(=O)N2Cc3cc(-c4ccc(C=O)o4)ccc3N(Cc3cncn3C)C[C@H]2Cc2ccc(-c3ccc(Cl)cc3)cc2)cc1 |  |  |  | > 9700 |  |  | > 99500 |  |  |  | 2240 |  |
| COc1ccc(S(=O)(=O)N2Cc3cc(-c4ccc(C#N)o4)ccc3N(Cc3cncn3C)C[C@H]2Cc2ccc(OC(=O)NCc3ccccc3)cc2)cc1 |  |  | 41.6 | > 9700 | > 10000 |  | > 99500 | 35 | 101 | 115 | 260 | 49 |
| COc1ccc(S(=O)(=O)N2Cc3cc(-c4ccc(C#N)o4)ccc3N(Cc3cncn3C)C[C@H]2Cc2ccc(OCc3ccccc3)cc2)cc1 |  |  |  | > 9700 |  |  | > 99500 |  |  |  | 577 | 213 |
| COc1ccc(S(=O)(=O)N2Cc3cc(-c4ccc(C#N)o4)ccc3N(Cc3cncn3C)C[C@H]2Cc2ccc(OS(=O)(=O)C(F)(F)F)cc2)cc1 |  |  |  |  | > 10000 |  |  | 71 | 130 | 222 |  | 54 |
| COc1ccc(S(=O)(=O)N2Cc3cc(-c4ccc(C#N)o4)ccc3N(Cc3cncn3C)C[C@H]2Cc2ccc(-c3cccnc3)cc2)cc1 |  |  |  | 110 |  |  | > 99500 |  |  |  | 37 |  |
| COc1ccc(S(=O)(=O)N2Cc3cc(-c4ccc(C#N)o4)ccc3N(Cc3cncn3C)C[C@H]2Cc2ccc(Nc3ccccc3)cc2)cc1 |  |  |  | 1210 |  |  | > 99500 |  |  |  | 1060 |  |
| COc1ccc(S(=O)(=O)N2Cc3cc(-c4ccnc(OC)c4)ccc3N(Cc3cncn3C)C[C@H]2Cc2ccc(OC(=O)NCc3ccccc3)cc2)cc1 |  |  |  | 321 |  |  | > 99500 |  |  |  | 55 | 338 |
| COc1ccc(S(=O)(=O)N2Cc3cc(-c4ccnc(OC)c4)ccc3N(Cc3cncn3C)C[C@H]2Cc2ccc(OCc3ccccc3)cc2)cc1 |  |  |  | 2560 |  |  | > 99500 |  |  |  | 5240 |  |
| COc1ccc(S(=O)(=O)N2Cc3cc(C#N)ccc3N(Cc3cncn3C)C[C@H]2Cc2ccc(OC(=O)NCc3ccccc3)cc2)cc1 | 338 | 142 | 72.2 |  | > 10000 |  | > 99500 | 231 | 151 | 130 |  | 81 |
| CCN(CC)C(=O)Oc1ccc(C[C@@H]2CN(Cc3cncn3C)c3ccc(C#N)cc3CN2S(=O)(=O)c2ccc(OC)cc2)cc1 | 412 |  |  |  | > 10000 |  | 2020 | 75 | 745 | 43 | 123 | 343 |

| SMILES | IC50 [1] [nM] | IC50 [2] [nM] | IC50 [3] [nM] | IC50 [4] [nM] | IC50 [5] [nM] | IC50 [6] [nM] | IC50 [7] [nM] | IC50 [8] [nM] | IC50 [9] [nM] | IC50 [10] [nM] | IC50 [11] [nM] | IC50 [12] [nM] |
| --- | --- | --- | --- | --- | --- | --- | --- | --- | --- | --- | --- | --- |
| COc1ccc(S(=O)(=O)N2Cc3cc(C#N)ccc3N(Cc3cncn3C)C[C@H]2Cc2ccc(OS(=O)(=O)C(F)(F)F)cc2)cc1 | 2220 | 3100 | 18600 |  | > 10000 |  | > 99500 |  | 1960 | 92 | 1500 | > 10000 |
| COc1ccc(S(=O)(=O)N2Cc3cc(C#N)ccc3N(Cc3cncn3C)C[C@H]2Cc2ccc(-c3cccnc3)cc2)cc1 | 442 | 413 | 353 | 4.3 | > 10000 |  | 3630 | 308 | 409 | 399 | 11 | 466 |
| COc1ccc(S(=O)(=O)N2Cc3cc(-c4ccc(C=O)o4)ccc3N(Cc3cncn3C)C[C@H]2Cc2ccc(O)cc2)cc1 |  |  | 206 | 7 |  |  | > 99500 |  |  |  |  | 120 |
| COc1ccc(S(=O)(=O)N2Cc3cc(-c4ccc(C#N)o4)ccc3N(Cc3cncn3C)C[C@H]2Cc2ccc(O)cc2)cc1 |  |  | 62.5 | 26.9 | > 10000 |  | > 99500 | 2 | 21 | 18 | < 14 | 11 |
| COc1ccc(S(=O)(=O)N2Cc3cc(-c4ccc(Cl)cc4)ccc3N(Cc3cncn3C)C[C@H]2Cc2ccc(O)cc2)cc1 |  |  |  | 194 |  |  | > 99500 |  |  |  | 706 |  |
| COc1ccc(S(=O)(=O)N2Cc3cc(-c4ccnc(OC)c4)ccc3N(Cc3cncn3C)C[C@H]2Cc2ccc(O)cc2)cc1 |  |  |  | 18.6 |  |  | > 99500 |  |  |  | 5.5 |  |
| COc1ccc(S(=O)(=O)N2Cc3cc(-c4ccncc4)ccc3N(Cc3cncn3C)C[C@H]2Cc2ccc(O)cc2)cc1 |  |  |  | 13.6 |  |  | > 99500 |  |  |  | < 4 |  |
| COc1ccc(S(=O)(=O)N2Cc3cc(-c4cccc(C#N)c4)ccc3N(Cc3cncn3C)C[C@H]2Cc2ccc(O)cc2)cc1 |  |  |  | 34.4 |  |  | > 99500 |  |  |  | 22.5 |  |
| COc1ccc(S(=O)(=O)N2Cc3cc(-c4cc(F)cc(F)c4)ccc3N(Cc3cncn3C)C[C@H]2Cc2ccc(O)cc2)cc1 |  |  |  | 172 |  |  | > 99500 |  |  |  | 185 |  |
| COc1ccc(S(=O)(=O)N2Cc3cc(-c4ccco4)ccc3N(Cc3cncn3C)C[C@H]2Cc2ccc(O)cc2)cc1 |  |  |  | 81.7 |  |  | > 99500 |  |  |  | 55 |  |
| COc1ccc(S(=O)(=O)N2Cc3cc(C(=O)NCc4ccccc4)ccc3N(Cc3cncn3C)C[C@H]2Cc2ccc(O)cc2)cc1 |  |  |  | 7 |  |  | > 99500 |  |  |  | 19 |  |
| COc1ccc(S(=O)(=O)N2Cc3cc(C#N)ccc3N(Cc3cncn3C)C[C@H]2Cc2ccc(O)cc2)cc1 | 315 | 162 | 1010 | 5.2 |  |  | > 99500 | 172 | 130 | 100 | < 4 | 115 |
| CCCCOc1ccc(C[C@@H]2CN(Cc3cncn3C)c3ccc(C#N)cc3CN2S(=O)(=O)c2ccc(OC)cc2)cc1 | 216 | 241 | 162 | 10 | 8690 |  | > 99500 | 264 | 154 | 165 | 156 | 307 |
| COc1ccc(S(=O)(=O)N2Cc3cc(C#N)ccc3N(Cc3cncn3C)C[C@H]2Cc2ccc(OCC=C(C)C)cc2)cc1 | 74 | 90 | 39 | 15 | 8030 |  | > 99500 | 112 | 59 | 116 | 63 | 43 |
| COc1ccc(S(=O)(=O)N2Cc3cc(C#N)ccc3N(Cc3cncn3C)C[C@H]2Cc2ccc(OCc3ccccc3)cc2)cc1 | 746 | 756 | 441 | 99.3 | > 10000 |  | > 99500 | 1050 | 372 | 265 | 181 |  |
| COc1ccc(S(=O)(=O)N2Cc3cc(C#N)ccc3N(Cc3cncn3C)C[C@H]2Cc2ccc(OC/C=C(\C)CCC=C(C)C)cc2)cc1 | 653 |  | 2070 | 1010 | > 10000 |  | > 99500 | 1430 |  | 1380 | 23.5 | 278 |
| CCCCCCNC(=O)Oc1ccc(C[C@@H]2CN(Cc3cncn3C)c3ccc(C#N)cc3CN2S(=O)(=O)c2ccc(OC)cc2)cc1 | 289 | 228 | 243 |  |  |  | > 99500 | 355 |  | 233 | 15.5 | 77.3 |
